Data from patent publication US11884675B2, “Heterocyclic compounds as triggering receptor expressed on myeloid cells 2 agonists and methods of use” (AMGEN INC., priority 2020, dated 2024).

Target: hTREM2 (Homo sapiens, UniProt Q9NZC2)
Experiment: TREM2 activity by cellular Syk phosphorylation (AlphaScreen/AlphaLISA) in TREM2/DAP12-HEK cells, used for Examples 1-305
Assay type: cell-based
Set-up: expressed in transfected cells
Settings: HEK293 Cells
Procedure, shortened: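 Phospho-Syk (Tyr525/526) over total Syk quantified by AlphaScreen in lysates of cloned TREM2/DAP12-overexpressing HEK293 cells after 45 min compound treatment at room temperature, 1% final DMSO. Values expressed relative to 100 nM anti-TREM2 antibody (positive) and isotype IgG (negative) controls; curves fitted with 4-parameter logistic model.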

Sequence of hTREM2 (Q9NZC2 19-230): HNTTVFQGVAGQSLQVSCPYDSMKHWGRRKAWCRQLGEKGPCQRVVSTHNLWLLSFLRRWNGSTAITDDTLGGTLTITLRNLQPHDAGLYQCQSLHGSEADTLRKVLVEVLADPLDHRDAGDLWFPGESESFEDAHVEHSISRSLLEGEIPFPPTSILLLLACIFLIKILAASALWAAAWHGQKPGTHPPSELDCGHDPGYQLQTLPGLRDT
Sequence of hTREM2 (O43914 22-113 partner): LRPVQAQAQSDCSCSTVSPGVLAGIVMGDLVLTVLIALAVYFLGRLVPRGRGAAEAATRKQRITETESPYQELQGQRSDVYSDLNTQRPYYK

SMILES | EC50 [nM] | hTREM2 Emax
Cn1cc([C@H]2CN(c3cc4ccccc4c(-c4ccc(Cl)cc4F)n3)CCO2)cn1 [Example 235, (S)-4-(1-(4-chloro-2-fluorophenyl)isoquinolin-3-yl)-2-(1-methyl-1H-pyrazol-4-yl)morpholine] | 3000 to 100000 | + (Emax>45 and ≤100)
Cc1cc2c(OC[C@H]3C[C@@H](C(F)(F)F)C3)nc(N3CCO[C@@H](c4cnn(C)c4)C3)nc2nc1C [Example 109, 6,7-dimethyl-2-((2S)-2-(1-methyl-1H-pyrazol-4-yl)-4-morpholinyl)-4-((cis-3-(trifluoromethyl)cyclobutyl)methoxy)pyrido[2,3-d]pyrimidine] | 3000 to 100000 | 
Cc1cnc2c(-c3ccc(Cl)cc3F)nc(N3CCO[C@H](c4cnc(C)nc4)C3)nc2n1 [Example 261, (R)-4-(4-(4-chloro-2-fluorophenyl)-7-methylpteridin-2-yl)-2-(2-methylpyrimidin-5-yl)morpholine] | 500 to 3000 | +++ (Emax>150 and ≤250)
Cc1cc(Cl)ccc1-c1nc(N2CCO[C@@H](c3cnn(C)c3)C2)nc2nc(C)c(C)nc12 [Example 58, 4-(4-chloro-2-methylphenyl)-6,7-dimethyl-2-((2S)-2-(1-methyl-1H-pyrazol-4-yl)-4-morpholinyl)pteridine] | 50 to 500 | +++ (Emax>150 and ≤250)
Cn1cc([C@H]2CN(c3nc(-c4ccc(Cl)cc4F)c4cccnc4n3)CCO2)cn1 [Example 83, 4-(4-chloro-2-fluorophenyl)-2-((2S)-2-(1-methyl-1H-pyrazol-4-yl)-4-morpholinyl)pyrido[2,3-d]pyrimidine] | 500 to 3000 | ++++ (Emax>250)
Cc1nc2nc(N3CCO[C@@H](c4cnn(C)c4)C3)nc(N3CCC(C)(C)C3)c2nc1C [Example 72, 4-(3,3-dimethyl-1-pyrrolidinyl)-6,7-dimethyl-2-((2S)-2-(1-methyl-1H-pyrazol-4-yl)-4-morpholinyl)pteridine] | 500 to 3000 | + (Emax>45 and ≤100)
Cc1nc2nc(N3CCO[C@@H](c4cnn(C)c4)C3)nc([C@H]3CCC(C)(C)C3)c2nc1C [Example 302, (S)-4-(4-((S)-3,3-dimethylcyclopentyl)-6,7-dimethylpteridin-2-yl)-2-(1-methyl-1H-pyrazol-4-yl)morpholine] | 50 to 500 | + (Emax>45 and ≤100)
Cc1cc2cc(N3CCO[C@@H](c4cnn(C)c4)C3)nc(-c3ccc(Cl)cc3F)c2nc1C [Example 237, (S)-4-(8-(4-chloro-2-fluorophenyl)-2,3-dimethyl-1,7-naphthyridin-6-yl)-2-(1-methyl-1H-pyrazol-4-yl)morpholine] | 3000 to 100000 | +++ (Emax>150 and ≤250)
Cc1ccc2c(-c3ccc(Cl)cc3F)cc(N3CCO[C@@H](c4cnn(C)c4)C3)nc2n1 [Example 156, 4-(4-chloro-2-fluorophenyl)-7-methyl-2-((2S)-2-(1-methyl-1H-pyrazol-4-yl)-4-morpholinyl)-1,8-naphthyridine] | 50 to 500 | +++ (Emax>150 and ≤250)
Cc1cc([C@@H]2C[C@H](c3nc(-c4ccc(F)cc4F)c4nc(C)c(C)nc4n3)CCO2)ccn1 (single isomer, unassigned) [Example 210] | 50 to 500 | ++++ (Emax>250)
Cc1nc2nc(N3CCO[C@@H](c4cnn(C)c4)C3)nc(N3CC(F)C3)c2nc1C [Example 29, 4-(3-fluoro-1-azetidinyl)-6,7-dimethyl-2-((2S)-2-(1-methyl-1H-pyrazol-4-yl)-4-morpholinyl)pteridine] | 3000 to 100000 | 
Cc1nc2nc(N3CC[C@H](C(F)F)C3)nc(-c3ccc(F)cc3F)c2nc1C [Example 244, (S)-2-(3-(difluoromethyl)pyrrolidin-1-yl)-4-(2,4-difluorophenyl)-6,7-dimethylpteridine] | 500 to 3000 | +++ (Emax>150 and ≤250)

More lines, now with the values ahead:

EC50 [nM] | hTREM2 Emax | SMILES
≤ 50 | ++++ (Emax>250) | Cc1nc2cc([C@H]3CCO[C@@H](c4cnn(C)c4)C3)nc(-c3ccc(F)cc3F)c2nc1C (single isomer, unassigned) [Example 195]
50 to 500 | ++ (Emax>100 and ≤150) | Cc1cc([C@@H]2CN(c3nc4nc(C)cnc4c([C@H]4C[C@@H](C(F)(F)F)C4)n3)CCO2)cnn1 (single isomer, unassigned) [Example 14]
50 to 500 | +++ (Emax>150 and ≤250) | Cc1cc(F)ccc1-c1nc(N2CCO[C@@H](c3cnn(C)c3)C2)nc2nc(C)c(C)nc12 [Example 59, 4-(4-fluoro-2-methylphenyl)-6,7-dimethyl-2-((2S)-2-(1-methyl-1H-pyrazol-4-yl)-4-morpholinyl)pteridine]
50 to 500 | +++ (Emax>150 and ≤250) | Cc1nc2nc(N3CCO[C@@H](c4cnn(C)c4)C3)nc(C3=CCC(C(F)(F)F)CC3)c2nc1C (stereo partly drawn) [Example 254, (2S)-4-(6,7-dimethyl-4-(4-(trifluoromethyl)cyclohex-1-en-1-yl)pteridin-2-yl)-2-(1-methyl-1H-pyrazol-4-yl)morpholine]
50 to 500 | +++ (Emax>150 and ≤250) | Cc1nc2nc([C@H]3CCO[C@@H](c4cnn(C5CC5)c4)C3)nc(-c3ccc(F)cc3F)c2nc1C [Example 305, 2-((2R,4S)-2-(1-cyclopropyl-1H-pyrazol-4-yl)tetrahydro-2H-pyran-4-yl)-4-(2,4-difluorophenyl)-6,7-dimethylpteridine]
50 to 500 | ++++ (Emax>250) | Cc1nc2nc(N3CCO[C@H]([C@@H]4CCOC4)C3)nc(-c3ccc(F)cc3F)c2nc1C [Example 243, (R)-4-(4-(2,4-difluorophenyl)-6,7-dimethylpteridin-2-yl)-2-((R)-tetrahydrofuran-3-yl)morpholine]
50 to 500 | ++ (Emax>100 and ≤150) | Cc1ccc2c(C3CCC(F)(F)CC3)nc(N3CCO[C@@H](c4cnn(C)c4)C3)nc2n1 [Example 141, 4-(4,4-difluorocyclohexyl)-7-methyl-2-((2S)-2-(1-methyl-1H-pyrazol-4-yl)-4-morpholinyl)pyrido [2,3-d]pyrimidine]
≤ 50 | +++ (Emax>150 and ≤250) | Cc1ccc(-c2cc([C@H]3CCO[C@@H](c4cnn(C)c4)C3)nc3nc(C)c(C)nc23)c(F)c1 (single isomer, unassigned) [Example 190]
50 to 500 | ++++ (Emax>250) | Cc1cc([C@@H]2C[C@H](c3nc(-c4ccc(Cl)cc4F)c4nc(C)c(C)nc4n3)CCO2)ccn1 (single isomer, unassigned) [Example 206]
≤ 50 | +++ (Emax>150 and ≤250) | Cc1nc2nc(N3CCO[C@@H](c4cnn(C)c4)C3)nc(C34CC(C(F)(F)F)(C3)C4)c2nc1C [Example 63, 6,7-dimethyl-2-((2S)-2-(1-methyl-1H-pyrazol-4-yl)-4-morpholinyl)-4-(3-(trifluoromethyl)bicyclo[1.1.1]pentan-1-yl)pteridine]
≤ 50 | ++++ (Emax>250) | Cc1cc2c(-c3ccc(F)cc3F)nc(N3CCO[C@@H](c4cnn(C)c4)C3)nc2nc1C [Example 166, 4-(2,4-difluorophenyl)-6,7-dimethyl-2((2S)-2-(1-methyl-1H-pyrazol-4-yl)-4-morpholinyl) pyrido[2,3-d]pyrimidine]
≤ 50 | +++ (Emax>150 and ≤250) | Cc1nc2nc(N3CCO[C@@H](c4cnn(C)c4)C3)nc(C3CC4(C3)CC(F)(F)C4)c2nc1C [Example 46, 4-(6,6-difluorospiro[3.3]heptan-2-yl)-6,7-dimethyl-2-((2S)-2-(1-methyl-1H-pyrazol-4-yl)-4-morpholinyl)pteridine]
≤ 50 | +++ (Emax>150 and ≤250) | Cc1nc2nc(N3CCO[C@@H](c4cnn(C)c4)C3)nc(-c3ccc(F)c(F)c3F)c2nc1C [Example 61, 6,7-dimethyl-2-((2S)-2-(1-methyl-1H-pyrazol-4-yl)-4-morpholinyl)-4-(2,3,4-trifluorophenyl)pteridine]
≤ 50 | +++ (Emax>150 and ≤250) | Cc1nc2nc(N3CCO[C@@H](c4cnn(C)c4)C3)nc(-c3cc(F)c(F)c(F)c3)c2nc1C [Example 18, 6,7-dimethyl-2-((2S)-2-(1-methyl-1H-pyrazol-4-yl)-4-morpholinyl)-4-(3,4,5-trifluorophenyl)pteridine]
≤ 50 | +++ (Emax>150 and ≤250) | Cc1nc2nc(N3CCO[C@@H](c4cnn(C)c4)C3)nc(-c3ccc(F)c(F)c3)c2nc1C [Example 60, 4-(3,4-difluorophenyl)-6,7-dimethyl-2-((2S)-2-(1-methyl-1H-pyrazol-4-yl)-4-morpholinyl)pteridine]
≤ 50 | + (Emax>45 and ≤100) | Cc1cc([C@H]2CN(c3nc4nc(C)cnc4c([C@H]4C[C@H](C(F)(F)F)C4)n3)CCO2)ccn1 [Example 16, 7-methyl-2-((2S)-2-(2-methyl-4-pyridinyl)-4-morpholinyl)-4-(trans-3-(trifluoromethyl)cyclobutyl)pteridine]
≤ 50 | +++ (Emax>150 and ≤250) | Cc1cc2c(nc(N3CCO[C@@H](c4cnn(C)c4)C3)nc2[C@H]2C[C@H](C(F)(F)F)C2)nc1C [Example 112, 6,7-dimethyl-2-((2S)-2-(1-methyl-1H-pyrazol-4-yl)-4-morpholinyl)-4-(trans-3-(trifluoromethyl)cyclobutyl)pyrido[2,3-d]pyrimidine]
≤ 50 | +++ (Emax>150 and ≤250) | Cc1nc2nc([C@@H]3CCO[C@H](c4cnn(C5CC5)c4)C3)nc(-c3ccc(F)cc3F)c2nc1C [Example 241, 2-((2S,4R)-2-(1-cyclopropyl-1H-pyrazol-4-yl)tetrahydro-2H-pyran-4-yl)-4-(2,4-difluorophenyl)-6,7-dimethylpteridine]
